Measured values reported in patent publication US6127136A, “Detection of dioxin-like compounds by detection of transformed Ah receptor/ARNT complex” (Paracelsian, Inc., priority 1996, dated 2000).

Key:
[1] = tested on: transformed DRE/AhR/ARNT complex; experiment: size exclusion column of DRE/AhR/ARNT complex followed by SDS-PAGE western blot; assay type: biochemical, guinea pig (hepatic cytosol)
Protocol: Size-exclusion column: 10 mL bed volume sephacryl S-100-HR (Sigma, St. Louis, Mo.) packed in Econopac column (Biorad cat. no. 732-1010), equilibrated in HEDG plus 200 mM NaCl. Column was hooked up to a peristaltic pump. Flow rate was 0.5 mL/min. The size exclusion column outlet was attached to a HPLC fluorimeter set at excitation 494 nm and emmission 520 nm to detect fluorescein. DRE used was F-ERD oligo (SEQ. ID. #4) and DRE-D oligo (SEQ. ID. #1) hybridized as described above. Cytosol was prepared as described above. Cytosol was dosed with 1:1000 v/v DMSO (-) or 1:1000 v/v 10 uM 2,3,7,8-tetrachlorodibenzo-p-dioxin in DMSO (+).
Samples were incubated for 2 hours at room temperature as described above to achieve transformation/binding events then put on ice. The entire A sample was loaded onto the Size Exclusion Column and chromatography developed at a flow rate of 0.5 ml/min. Eluant fractions were collected at 2 min intervals (1 mL/fraction). The protocol was repeated for samples B,C,D.
The fluorimeter readings went offscale and usable readings for the fluorescent DRE were not possible. 200 uL subaliquots of fractions 3-10 were submitted to Sodium Dodecyl Sulfate--PolyAcrylamide Gel Electrophoresis (SDS-PAGE) followed by western blotting. Blots of fractions from samples A and B were probed with anti-ARNT (1:200) and anti-rabbit/alkaline phosphatase (1: 1000) and developed with BCIP/NBT. […]

[2] = biological target: transformed Ah receptor/ARNT complex (Cavia porcellus, UniProt Q6J287); experiment: sandwich ELISA detecting transformed Ah receptor/ARNT complex, DRE and anti-ARNT dilutions; assay type: biochemical, guinea pig (hepatic cytosol); set-up: from tissue; host or cells: hepatic cytosol of male Hartley guinea pigs (animals from Cornell Research Animal Resources)
Protocol: Working dilution of anti-ARNT was diluted (1:200, 50 uL in 10 mL) in PBS plus 0.02% tween 20 plus 0.1% bovine serum albumin. Working dilution of anti-Rabbit/alkaline phosphatase (Sigma, St. Louis, Mo.) was prepared by diluting 20 uL into 20 mL PBS plus 0.02% tween 20 plus 0.1% bovine serum albumin to make a 1:1000 dilution. Diethanolamine buffer was prepared by dissolving 0.4 g Magnesium chloride hexahydrate, 0.8 g sodium azide, 338 mL diethanolamine in 2.5 L deionized water, adjusting pH to 9.8 with concentrated HCl, and adjusting volume to 4 liters. PnPP stock was prepared fresh by dissoving two 15 mg tablets of para-nitro phenyl phosphate (Sigma, St. Louis, Mo.) in 20 mL diethanolamine buffer.
B-DRE (sequence ID 2) and DRE-D (sequence ID 1) were hybridized as described above. Cytosol was prepared as described above. Thirty five mL of cytosol was thawed and pooled. The cytosol was divided into two 17 mL aliquots and treated with either 17 uL DMSO, sample labled (-) or 17 uL 10 uM TCDD in DMSO with the sample labled (+). DMSO-treated cytosol (1700 uL) was mixed with 10.6 uL hybridized DRE (sample labeled B-). TCDD-treated cytosol (1700 uL) was mixed with 10.6 uL hybridized DRE (sample labeled B+).
A neutravidin-coated 96 well ELISA plate (Pierce), with the standard 12×8 well matrix, labeled 1-12 horizontally and A-H vertically, was warmed to room temperature. DMSO treated cytosol (-) was put in wells A2-A12 x D2-D12 at 200 uL per well. TCDD treated cytosol (+) was put in wells E2-E12 x H2-H12 at 200 uL per well. Untreated Cytosol plus DRE sample (B-), 400 uL per well, was put in wells A1-D1. Treated Cytosol sample plus DRE (13+), 400 uL per well, was put in wells […]. The Untreated cytosol plus DRE sample (B-) and treated cytosol sample plus DRE (B+) were then serially diluted 1:1 across the plate, resulting in a serial dilution of DRE in either 200 uL treated or 200 uL untreated cytosol. The last column (A12H12) contained 400 uL, so 200 uL of that was discarded. Highest dilution of DRE in column A1-H1 was arbitrarily called 1, with the other dilutions labeled 0.5, 0.25 . . . 0.0005 respectively.
The ELISA plate was incubated with gentle rocking for 2 hours to allow the transformaton of Ah receptor, binding of Ah receptor with ARNT, and binding of the Ah receptor/ARNT complex to the biotinylated DRE, and binding of the biotinylated DRE to the neutravidin bound to the ELISA plate.
After 2 hours the plate was washed 3 times with 300 uL PBS plus 0.02% tween 20 and 400 uL of the working dilution of anti-ARNT added to rows A1-A12 and E1-E12 of the ELISA plate. 200 uL of PBS plus 0.02% tween 20 plus 0.1% bovine serum albumin was added to the remaining wells. […] After 2 hours the plate was washed as before and working dilution (1:1000) of anti-rabbit/alkaline phosphatase conjugate was added to all wells. The plate was incubated for a further 1 hour at room temperature with gentle rocking and then washed as before. PnPP stock was added to each well (200 uL) and the plate was incubated for 1 hour, at which time it was read at 405 nm in an ELISA plate reader and milli O.D. recorded.

Sequence of transformed Ah receptor/ARNT complex (Q6J287 1-846): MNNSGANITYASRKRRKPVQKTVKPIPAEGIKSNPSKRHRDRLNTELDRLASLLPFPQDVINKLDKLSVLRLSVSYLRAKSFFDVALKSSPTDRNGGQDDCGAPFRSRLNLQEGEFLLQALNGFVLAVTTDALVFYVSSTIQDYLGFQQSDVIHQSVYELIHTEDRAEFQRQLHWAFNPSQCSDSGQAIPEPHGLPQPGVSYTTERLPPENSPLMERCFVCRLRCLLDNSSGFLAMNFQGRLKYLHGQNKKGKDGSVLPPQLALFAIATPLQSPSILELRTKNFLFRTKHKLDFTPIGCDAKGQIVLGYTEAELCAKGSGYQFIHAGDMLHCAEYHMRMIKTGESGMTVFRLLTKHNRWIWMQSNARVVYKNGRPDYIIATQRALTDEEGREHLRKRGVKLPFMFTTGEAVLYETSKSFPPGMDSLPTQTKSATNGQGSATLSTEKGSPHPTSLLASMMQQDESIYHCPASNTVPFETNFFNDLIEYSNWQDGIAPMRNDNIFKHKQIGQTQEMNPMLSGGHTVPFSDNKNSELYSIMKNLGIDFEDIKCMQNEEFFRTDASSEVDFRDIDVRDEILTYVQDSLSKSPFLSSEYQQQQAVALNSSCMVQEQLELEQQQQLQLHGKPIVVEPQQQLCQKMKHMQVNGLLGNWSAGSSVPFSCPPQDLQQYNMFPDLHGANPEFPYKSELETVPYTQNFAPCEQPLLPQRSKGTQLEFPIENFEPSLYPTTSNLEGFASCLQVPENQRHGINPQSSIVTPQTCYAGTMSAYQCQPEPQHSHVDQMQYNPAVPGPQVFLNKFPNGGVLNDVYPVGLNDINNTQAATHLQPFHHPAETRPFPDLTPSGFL
Sequence of transformed Ah receptor/ARNT complex (Q0WXX3 1-790 partner): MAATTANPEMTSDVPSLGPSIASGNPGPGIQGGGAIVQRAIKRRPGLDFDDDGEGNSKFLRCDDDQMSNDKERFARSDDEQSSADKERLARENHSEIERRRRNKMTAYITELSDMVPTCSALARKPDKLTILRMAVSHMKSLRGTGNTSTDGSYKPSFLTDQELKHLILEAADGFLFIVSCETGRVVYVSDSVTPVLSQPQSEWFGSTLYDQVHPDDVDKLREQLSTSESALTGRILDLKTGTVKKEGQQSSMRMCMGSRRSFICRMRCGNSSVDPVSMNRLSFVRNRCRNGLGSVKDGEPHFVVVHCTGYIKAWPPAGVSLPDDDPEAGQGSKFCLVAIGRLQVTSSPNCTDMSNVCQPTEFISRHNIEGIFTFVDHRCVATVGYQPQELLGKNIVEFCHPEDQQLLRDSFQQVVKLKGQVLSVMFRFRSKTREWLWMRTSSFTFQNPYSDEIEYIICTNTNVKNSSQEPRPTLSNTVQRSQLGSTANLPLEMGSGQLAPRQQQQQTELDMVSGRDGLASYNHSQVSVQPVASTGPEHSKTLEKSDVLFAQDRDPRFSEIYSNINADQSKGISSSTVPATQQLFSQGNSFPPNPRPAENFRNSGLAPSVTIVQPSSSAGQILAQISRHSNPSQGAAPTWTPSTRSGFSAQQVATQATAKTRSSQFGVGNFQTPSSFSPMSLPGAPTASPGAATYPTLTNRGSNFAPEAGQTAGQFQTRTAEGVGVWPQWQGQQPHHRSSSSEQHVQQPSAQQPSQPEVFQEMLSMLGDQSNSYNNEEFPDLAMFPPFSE

SMILES: Clc1cc2c(cc1Cl)Oc1cc(Cl)c(Cl)cc1O2 [TCDD, 2,3,7,8-tetrachlorodibenzo-p-dioxin]
- ARNT band in size exclusion fraction 3 ([1]; sample B (TCDD) vs sample A (DMSO), anti-ARNT blot): showed a band at the size of ARNT (circa 97 kD) that was absent in fraction 3 of sample A
- rabbit IgG light chain (anti-ARNT) band in size exclusion fraction 5 ([1]; sample D (TCDD) vs sample C (DMSO), anti-rabbit blot): showed a band at the size of rabbit IgG light chain (circa 25 kD) that was absent in fraction 5 of sample C
- response in sandwich ELISA ([2]; Example 7 conclusion): gives a differential response
- O.D. at 405 nm ([2]; anti-ARNT dilution 0.000625, DRE dilution 0.002, TCDD (+)): 463 milli O.D.
- O.D. at 405 nm ([2]; anti-ARNT dilution 0.000625, DRE dilution 0.004, TCDD (+)): 595 milli O.D.
- O.D. at 405 nm ([2]; anti-ARNT dilution 0.000625, DRE dilution 0.008, TCDD (+)): 726 milli O.D.
- O.D. at 405 nm ([2]; anti-ARNT dilution 0.000625, DRE dilution 0.016, TCDD (+)): 639 milli O.D.
- O.D. at 405 nm ([2]; anti-ARNT dilution 0.000625, DRE dilution 0.031, TCDD (+)): 562 milli O.D.
- O.D. at 405 nm ([2]; anti-ARNT dilution 0.000625, DRE dilution 0.063, TCDD (+)): 480 milli O.D.
- O.D. at 405 nm ([2]; anti-ARNT dilution 0.000625, DRE dilution 0.125, TCDD (+)): 411 milli O.D.
- O.D. at 405 nm ([2]; anti-ARNT dilution 0.000625, DRE dilution 0.25, TCDD (+)): 392 milli O.D.
- O.D. at 405 nm ([2]; anti-ARNT dilution 0.000625, DRE dilution 0.5, TCDD (+)): 393 milli O.D.
- O.D. at 405 nm ([2]; anti-ARNT dilution 0.000625, DRE dilution 1, TCDD (+)): 408 milli O.D.
- O.D. at 405 nm ([2]; anti-ARNT dilution 0.000625, DRE dilution 1E-03, TCDD (+)): 442 milli O.D.
- O.D. at 405 nm ([2]; anti-ARNT dilution 0.000625, DRE dilution 5E-04, TCDD (+)): 480 milli O.D.
- O.D. at 405 nm ([2]; anti-ARNT dilution 0.00125, DRE dilution 0.002, TCDD (+)): 595 milli O.D.
- O.D. at 405 nm ([2]; anti-ARNT dilution 0.00125, DRE dilution 0.004, TCDD (+)): 932 milli O.D.
- O.D. at 405 nm ([2]; anti-ARNT dilution 0.00125, DRE dilution 0.008, TCDD (+)): 1070 milli O.D.
- O.D. at 405 nm ([2]; anti-ARNT dilution 0.00125, DRE dilution 0.016, TCDD (+)): 916 milli O.D.
- O.D. at 405 nm ([2]; anti-ARNT dilution 0.00125, DRE dilution 0.031, TCDD (+)): 767 milli O.D.
- O.D. at 405 nm ([2]; anti-ARNT dilution 0.00125, DRE dilution 0.063, TCDD (+)): 537 milli O.D.
- O.D. at 405 nm ([2]; anti-ARNT dilution 0.00125, DRE dilution 0.125, TCDD (+)): 487 milli O.D.
- O.D. at 405 nm ([2]; anti-ARNT dilution 0.00125, DRE dilution 0.25, TCDD (+)): 406 milli O.D.
- O.D. at 405 nm ([2]; anti-ARNT dilution 0.00125, DRE dilution 0.5, TCDD (+)): 393 milli O.D.
- O.D. at 405 nm ([2]; anti-ARNT dilution 0.00125, DRE dilution 1, TCDD (+)): 387 milli O.D.
- O.D. at 405 nm ([2]; anti-ARNT dilution 0.00125, DRE dilution 1E-03, TCDD (+)): 484 milli O.D.
- O.D. at 405 nm ([2]; anti-ARNT dilution 0.00125, DRE dilution 5E-04, TCDD (+)): 498 milli O.D.
- O.D. at 405 nm ([2]; anti-ARNT dilution 0.0025, DRE dilution 0.002, TCDD (+)): 922 milli O.D.
- O.D. at 405 nm ([2]; anti-ARNT dilution 0.0025, DRE dilution 0.004, TCDD (+)): 1281 milli O.D.
- O.D. at 405 nm ([2]; anti-ARNT dilution 0.0025, DRE dilution 0.008, TCDD (+)): 1682 milli O.D.
- O.D. at 405 nm ([2]; anti-ARNT dilution 0.0025, DRE dilution 0.016, TCDD (+)): 1486 milli O.D.
- O.D. at 405 nm ([2]; anti-ARNT dilution 0.0025, DRE dilution 0.031, TCDD (+)): 1125 milli O.D.
- O.D. at 405 nm ([2]; anti-ARNT dilution 0.0025, DRE dilution 0.063, TCDD (+)): 804 milli O.D.
- O.D. at 405 nm ([2]; anti-ARNT dilution 0.0025, DRE dilution 0.125, TCDD (+)): 608 milli O.D.
- O.D. at 405 nm ([2]; anti-ARNT dilution 0.0025, DRE dilution 0.25, TCDD (+)): 532 milli O.D.
- O.D. at 405 nm ([2]; anti-ARNT dilution 0.0025, DRE dilution 0.5, TCDD (+)): 544 milli O.D.
- O.D. at 405 nm ([2]; anti-ARNT dilution 0.0025, DRE dilution 1, TCDD (+)): 585 milli O.D.
- O.D. at 405 nm ([2]; anti-ARNT dilution 0.0025, DRE dilution 1E-03, TCDD (+)): 680 milli O.D.
- O.D. at 405 nm ([2]; anti-ARNT dilution 0.0025, DRE dilution 5E-04, TCDD (+)): 722 milli O.D.
- O.D. at 405 nm ([2]; anti-ARNT dilution 0.005, DRE dilution 0.002, TCDD (+)): 1524 milli O.D.
- O.D. at 405 nm ([2]; anti-ARNT dilution 0.005, DRE dilution 0.004, TCDD (+)): 2029 milli O.D.
- O.D. at 405 nm ([2]; anti-ARNT dilution 0.005, DRE dilution 0.008, TCDD (+)): 2558 milli O.D.
- O.D. at 405 nm ([2]; anti-ARNT dilution 0.005, DRE dilution 0.016, TCDD (+)): 2122 milli O.D.
- O.D. at 405 nm ([2]; anti-ARNT dilution 0.005, DRE dilution 0.031, TCDD (+)): 1706 milli O.D.
- O.D. at 405 nm ([2]; anti-ARNT dilution 0.005, DRE dilution 0.063, TCDD (+)): 1202 milli O.D.
- O.D. at 405 nm ([2]; anti-ARNT dilution 0.005, DRE dilution 0.125, TCDD (+)): 963 milli O.D.
- O.D. at 405 nm ([2]; anti-ARNT dilution 0.005, DRE dilution 0.25, TCDD (+)): 777 milli O.D.
- O.D. at 405 nm ([2]; anti-ARNT dilution 0.005, DRE dilution 0.5, TCDD (+)): 765 milli O.D.
- O.D. at 405 nm ([2]; anti-ARNT dilution 0.005, DRE dilution 1, TCDD (+)): 771 milli O.D.
- O.D. at 405 nm ([2]; anti-ARNT dilution 0.005, DRE dilution 1E-03, TCDD (+)): 1070 milli O.D.
- O.D. at 405 nm ([2]; anti-ARNT dilution 0.005, DRE dilution 5E-04, TCDD (+)): 1191 milli O.D.
